Measurements reported in patent publication US10463644B2, “Uses of sesquiterpene lactone compounds and their derivatives in drugs preparation” (ACCENDATECH, priority 2013, dated 2019).

System: TNF-α secreted by synoviocyte
Assay: Content of TNF-α in culture supernatant of synoviocyte of RA model rats given test compound
Format: in vivo
Conditions: rat RA model, dose 30 mg/kg.2d, normal control 0.38 ± 0.027, NaCl 0.74 ± 0.098
Method in brief: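 Animals with induced RA are grouped and dosed with compound (30 mg/kg.2d) alongside NaCl and normal controls. Synoviocytes are prepared and cultured, and supernatants are harvested. TNF-α and PGE2 secretion are then quantified by one procedure, IL-1β by another.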

`C=C1C(=O)O[C@H]2[C@H]1CCC(C)=C1CC[C@@](C)(OC(=O)CCCc3cn(CCCCCCO)nn3)[C@@H]12` [Compound 21] was tested, and the “Content of TNF-α in culture supernatant of synoviocyte (x ± s)” value (“Content of TNF-α” below) was 0.56 ± 0.034 ng/mL.
`CC1=C2CC[C@@](C)(O)[C@@H]2[C@H]2OC(=O)[C@@H](CN(C)C)[C@@H]2CC1` [Compound 23] was tested, and the “Content of TNF-α” value (30 mg/kg) was 0.63 ± 0.063 ng/mL.
With `C=C1C(=O)O[C@H]2[C@H]1CC[C@]1(C)O[C@@]13CC[C@@](C)(O)[C@H]23` [Compound 24] the “Content of TNF-α” value was 0.54 ± 0.057 ng/mL.
With `C=C1CC[C@H]2C(=C)CC[C@H]3C(=C)C(=O)O[C@@H]3[C@@H]12` [Compound 25] the “Content of TNF-α” value was 0.58 ± 0.056 ng/mL.
`C=C1C(=O)O[C@@H]2[C@@H]3[C@@H](CCC34CC4)C3(CC[C@@H]12)CC3` [Compound 26] was tested, and the “Content of TNF-α” value was 0.59 ± 0.051 ng/mL.
With `CN(C)C[C@@H]1C(=O)O[C@H]2[C@H]1CCC1(CC1)[C@@H]1CCC3(CC3)[C@H]21` [Compound 27] the “Content of TNF-α” value was 0.54 ± 0.066 ng/mL.
`CCOC(=O)[C@@H]1CCCN1C[C@@H]1C(=O)O[C@H]2[C@H]1CCC1(CC1)[C@@H]1CCC3(CC3)[C@H]21` [Compound 29] was tested, and the “Content of TNF-α” value was 0.66 ± 0.046 ng/mL.
With `CN(C)C[C@@H]1C(=O)O[C@H]2[C@H]1CCC1(CC1)[C@@H]1CCC3(CC3)[C@H]21` [Compound 35] the “Content of TNF-α” value was 0.57 ± 0.057 ng/mL.
With `[2H][C@@]1(CN(C)C)C(=O)O[C@@H]2[C@@H]3[C@@H](CCC34CC4)C3(CC[C@H]21)CC3` [Compound 46] the “Content of TNF-α” value was 0.56 ± 0.034 ng/mL.
For `C=C1C(=O)O[C@H]2[C@H]1CC[C@@](C)(OC)C1CC[C@@](C)(O)[C@@H]12` (stereo partly shown) [Compound 47], the “Content of TNF-α” value was 0.64 ± 0.062 ng/mL.
`C=C1C(=O)O[C@@H]2[C@@H]3[C@@H](CC[C@@]3(C)O)C(=C)CC[C@@H]12` [Compound 48] was tested, and the “Content of TNF-α” value was 0.62 ± 0.054 ng/mL.
`C=C1C(=O)O[C@@H]2[C@@H]3[C@@H](CC[C@@]3(C)O)[C@](C)(O)CC[C@@H]12` [Compound 49] was tested, and the “Content of TNF-α” value was 0.65 ± 0.046 ng/mL.
With `C=C1C(=O)O[C@@H]2[C@H]3C(C)=CC[C@@]34O[C@@]4(C)CC[C@@H]12` [Compound 50] the “Content of TNF-α” value was 0.52 ± 0.064 ng/mL.
